Like-named read-outs stand apart in the source and are kept apart here.
Key:
[1] = Metabolic stability in human hepatocytes; type: in vitro ADME; conditions: 120 minutes at 10 μM
Protocol: The stability of compound (I) was tested in human hepatocytes incubating for 120 minutes at 10 μM. The compound was stable in human hepatocytes.

[2] = 14-day repeat-dose study in NMRI mice; type: in vivo, mouse
Protocol: In a 14-day repeat-dose study 4 groups of 8 male and 8 female NMRI mice were treated daily with compound (I) at doses of 15, 30, and 60 mg/kg p.o. (Groups 2, 3 and 4), or vehicle, 5% glucose s.c. (Group 1). A satellite group 90 mg/kg p.o. (group 5) was conducted accordingly to increase the exposure and efficacy.

[3] = Metabolic stability in liver microsomes, monkey; type: in vitro ADME
Protocol: (§1) The metabolic stability of compound (I) was tested in liver microsomes from all in house available species at 1 and 5 μM. One metabolite of 16 mass units higher than parent, was found in all incubations, except with human liver microsomes.

5-HT transporter = 5-HT transporter (Homo sapiens, UniProt P31645); test: ^3H-Citalopram binding, human
Excerpt: Compound (I) has been characterized as a monoamine reuptake inhibitor, based on the profile in a series of functional assays (Table 2).

[4] = Metabolic stability in liver microsomes, guinea pig; type: in vitro ADME
Protocol: as §1

[5] = Purity and stability study (solution, photo, oxidation, solid state); type: physicochemical
Protocol: A purity and stability study was performed on exo-7-(8-aza-bicyclo[3.2.1]oct-3-yloxy)-chromen-2-one (compound (I)) hydrochloride anhydrate, showing that the compound is chemically and thermodynamically stable as solid and in solution, but sensitive to light when in solution.

[6] = system: brain levels of noradrenalin (NA); test: In vivo microdialysis, NA; set-up: species or system rat
Protocol: The purpose of the present study was to examine, by in vivo microdialysis technique, the effects after administration of compound (I) on brain levels of serotonin, noradrenalin and dopamine within the ventral hippocampus (Hipp), prefrontal cortex (PFC), striatum (STR) and nucleus accumbens (N.Acc) of anaesthetized rats and mice. Compound (I) represents dual acting serotonin/dopamine reuptake inhibitors and was tested in comparison to citalopram a selective serotonin uptake inhibitor. Compound (I) was tested following subcutaneous injections at dose levels between 0.25-30 mg/kg. […] Pre-treatment with the 5-HT1A autoreceptor antagonist WAY-100635 induced a further minor increase of the compound (I) (0.25 mg/kg) induced increase in the PFC level of 5-HT.

[7] = Metabolic stability in liver microsomes, minipig; type: in vitro ADME
Protocol: as §1

Serotonin 5-HT3 = target: T1, Serotonin 5-HT3 (Homo sapiens, UniProt P46098); test: MDS LeadProfilingScreen, Serotonin 5-HT3; type: binding
T1 sequence (P46098 24-478): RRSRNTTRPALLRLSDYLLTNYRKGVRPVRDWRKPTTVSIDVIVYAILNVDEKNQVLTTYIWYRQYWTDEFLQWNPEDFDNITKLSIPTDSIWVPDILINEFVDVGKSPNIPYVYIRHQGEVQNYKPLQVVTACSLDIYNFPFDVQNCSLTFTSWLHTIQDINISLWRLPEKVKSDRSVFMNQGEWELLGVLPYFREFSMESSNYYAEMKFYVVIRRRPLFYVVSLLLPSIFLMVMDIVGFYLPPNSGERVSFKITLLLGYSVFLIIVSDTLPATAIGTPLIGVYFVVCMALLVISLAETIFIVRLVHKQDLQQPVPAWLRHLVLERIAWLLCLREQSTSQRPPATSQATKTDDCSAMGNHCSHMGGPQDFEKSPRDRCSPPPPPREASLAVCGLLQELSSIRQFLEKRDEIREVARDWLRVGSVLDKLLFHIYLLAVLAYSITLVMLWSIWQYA

CYP1A2 = CYP1A2 (Homo sapiens, UniProt P05177); test: CYP450 inhibition, cocktail of selective substrates, 1A2; type: in vitro ADME; conditions: CYP 1A2, Phenacetin to Paracetamol; read-out: IC50 of compound (I)
Protocol: Compound (I) was tested for CYP450 inhibition using a cocktail of selective substrates. […] This might be addressed later in a clinical study.

[8] = Exposure and tissue distribution after 14 days repeat dosing, mouse; type: in vivo; conditions: for concentration at 2 h / Kp at 2 h: mouse, po, 2 h post last dose
Protocol: Single time point data is available from two 14 days repeat dose studies in mice and rats dosed to both sexes. The three low doses were performed together as one study and the top dose was performed at another occasion as a satellite study.
Samples were taken 2 h post last dose.
Plasma, brain and liver were taken 2 h post last dose.

[9] = 60 mg/kg p.o. 14 days (Group 4)
[10] = 90 mg/kg p.o. 14 days (Group 5)

CYP1A2, sequence (P05177 whole entry): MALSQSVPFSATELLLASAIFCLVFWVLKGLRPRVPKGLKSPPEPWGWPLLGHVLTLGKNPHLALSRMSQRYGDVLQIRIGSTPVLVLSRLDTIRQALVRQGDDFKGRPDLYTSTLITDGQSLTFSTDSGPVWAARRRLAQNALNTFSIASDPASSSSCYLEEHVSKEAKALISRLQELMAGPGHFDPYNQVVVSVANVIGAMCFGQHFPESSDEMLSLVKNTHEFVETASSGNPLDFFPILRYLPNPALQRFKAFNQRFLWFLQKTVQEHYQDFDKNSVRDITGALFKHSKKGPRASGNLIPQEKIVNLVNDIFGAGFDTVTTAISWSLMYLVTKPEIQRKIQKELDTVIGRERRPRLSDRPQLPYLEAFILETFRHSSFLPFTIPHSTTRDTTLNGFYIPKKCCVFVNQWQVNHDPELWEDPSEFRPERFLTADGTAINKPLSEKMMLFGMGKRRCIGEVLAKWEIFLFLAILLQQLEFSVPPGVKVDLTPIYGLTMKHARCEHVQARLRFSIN
5-HT transporter, sequence (P31645 whole entry): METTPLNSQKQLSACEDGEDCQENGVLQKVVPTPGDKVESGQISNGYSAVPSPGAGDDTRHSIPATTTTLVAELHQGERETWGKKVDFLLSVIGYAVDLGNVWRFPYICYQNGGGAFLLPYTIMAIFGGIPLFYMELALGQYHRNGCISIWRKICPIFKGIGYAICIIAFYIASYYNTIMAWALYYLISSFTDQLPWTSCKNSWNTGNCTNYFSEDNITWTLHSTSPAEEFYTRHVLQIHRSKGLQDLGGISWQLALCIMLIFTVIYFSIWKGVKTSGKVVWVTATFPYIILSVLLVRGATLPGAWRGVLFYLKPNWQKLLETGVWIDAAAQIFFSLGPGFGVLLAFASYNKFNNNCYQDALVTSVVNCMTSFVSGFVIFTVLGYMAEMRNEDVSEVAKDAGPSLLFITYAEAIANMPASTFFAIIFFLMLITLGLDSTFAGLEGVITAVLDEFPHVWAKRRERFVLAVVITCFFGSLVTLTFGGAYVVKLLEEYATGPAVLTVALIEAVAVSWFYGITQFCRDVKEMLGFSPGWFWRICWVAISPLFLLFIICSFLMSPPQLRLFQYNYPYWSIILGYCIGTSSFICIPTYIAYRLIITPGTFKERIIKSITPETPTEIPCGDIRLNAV

O=c1ccc2ccc(O[C@@H]3C[C@H]4CC[C@@H](C3)N4)cc2o1 [Compound (I), exo-7-(8-aza-bicyclo[3.2.1]oct-3-yloxy)-chromen-2-one]
Stability in human hepatocytes [1]: stable
Activity [2, 9]: increase in activity in both male and female
Body weight [2, 9]: significant decrease in body weight in the female group
Relative liver weight [2, 9]: significant decrease in relative liver weight in both sexes
Activity [2, 10]: increase in activity in both male and female
Body weight and relative liver weight [2, 10]: significant decrease in body weight and in relative liver weight in both sexes
Macroscopic findings at termination ([2]; 15 up to 90 mg/kg/day p.o. 14 days): no treatment-related macroscopic findings
Stability at 1 μM [3]: 79%
Stability at 5 μM [3]: 88%
Ki (5-HT transporter): 0.24 nM
Stability at 1 μM [4]: 98%
Stability at 5 μM [4]: 82%
Compound (I), % left after 1 d at 40° C. ([5]; Oxidation, 5% H2O2, 0.15 mM): 83%
Compound (I), % left after 3 h at 250 W/m^2 ([5]; Photostability at pH 7.4): 11%
% left after 26 d at 40° C. 75% rel. humidity in open container ([5]; Solid state stability): 100%
Compound (I), % left after 1 d at 40° C. ([5]; Stability at pH 1.0, 0.15 mM): 100%
Compound (I), % left after 1 d at 40° C. ([5]; Stability at pH 7.4, 0.15 mM): 100%
NA (AUC0-160 min) ([6]; Hippocampus, 3 mg/kg s.c., 3 mg/kg): 138±13%
NA (AUC0-160 min) ([6]; Pre-frontal cortex, 10 mg/kg s.c., 10 mg/kg): 135±4%
Stability at 1 μM [7]: 88%
Stability at 5 μM [7]: 98%
Ki (Serotonin 5-HT3): 1040 nM
Separation to transporter hDAT (Serotonin 5-HT3; 5-HT3 Ki versus hDAT Ki 155 nM): x6.7
Separation to transporter hNET (Serotonin 5-HT3; 5-HT3 Ki versus hNET Ki 594 nM): x1.7
inhibition at 10 µM (Serotonin 5-HT3; Serotonin 5-HT3, Human, 10 μM): 86%
IC50 (CYP1A2): 3.5 µM
concentration at 2 h ([8]; NMRI, brain, Female mice, 15 mg/kg p.o. 14 days, read-out: Brain concentration): 2640 ng/g
Kp at 2 h ([8]; NMRI, brain, Female mice, 15 mg/kg p.o. 14 days, read-out: Brain/plasma ratio): 7
concentration at 2 h ([8]; NMRI, brain, Female mice, 30 mg/kg p.o. 14 days, read-out: Brain concentration): 7070 ng/g
Kp at 2 h ([8]; NMRI, brain, Female mice, 30 mg/kg p.o. 14 days, read-out: Brain/plasma ratio): 6
concentration at 2 h ([8]; NMRI, brain, Female mice, 60 mg/kg p.o. 14 days, read-out: Brain concentration): 11500 ng/g
Kp at 2 h ([8]; NMRI, brain, Female mice, 60 mg/kg p.o. 14 days, read-out: Brain/plasma ratio): 6
concentration at 2 h ([8]; NMRI, brain, Female mice, 90 mg/kg p.o. 14 days, read-out: Brain concentration): 17100 ng/g
concentration at 2 h ([8]; NMRI, brain, Male mice, 15 mg/kg p.o. 14 days, read-out: Brain concentration): 1970 ng/g
Kp at 2 h ([8]; NMRI, brain, Male mice, 15 mg/kg p.o. 14 days, read-out: Brain/plasma ratio): 7
concentration at 2 h ([8]; NMRI, brain, Male mice, 30 mg/kg p.o. 14 days, read-out: Brain concentration): 4720 ng/g
Kp at 2 h ([8]; NMRI, brain, Male mice, 30 mg/kg p.o. 14 days, read-out: Brain/plasma ratio): 6
concentration at 2 h ([8]; NMRI, brain, Male mice, 60 mg/kg p.o. 14 days, read-out: Brain concentration): 8080 ng/g
Kp at 2 h ([8]; NMRI, brain, Male mice, 60 mg/kg p.o. 14 days, read-out: Brain/plasma ratio): 6
concentration at 2 h ([8]; NMRI, brain, Male mice, 90 mg/kg p.o. 14 days, read-out: Brain concentration): 21100 ng/g
Kp at 2 h ([8]; NMRI, in vivo, Female mice, 15 mg/kg p.o. 14 days, read-out: Liver/plasma ratio): 18
Kp at 2 h ([8]; NMRI, in vivo, Female mice, 30 mg/kg p.o. 14 days, read-out: Liver/plasma ratio): 18
Kp at 2 h ([8]; NMRI, in vivo, Female mice, 60 mg/kg p.o. 14 days, read-out: Liver/plasma ratio): 21
Kp at 2 h ([8]; NMRI, in vivo, Male mice, 15 mg/kg p.o. 14 days, read-out: Liver/plasma ratio): 28
Kp at 2 h ([8]; NMRI, in vivo, Male mice, 30 mg/kg p.o. 14 days, read-out: Liver/plasma ratio): 17
Kp at 2 h ([8]; NMRI, in vivo, Male mice, 60 mg/kg p.o. 14 days, read-out: Liver/plasma ratio): 12
concentration at 2 h ([8]; NMRI, liver, Female mice, 15 mg/kg p.o. 14 days, read-out: Liver concentration): 7160 ng/g
concentration at 2 h ([8]; NMRI, liver, Female mice, 30 mg/kg p.o. 14 days, read-out: Liver concentration): 22500 ng/g
concentration at 2 h ([8]; NMRI, liver, Female mice, 60 mg/kg p.o. 14 days, read-out: Liver concentration): 42000 ng/g
concentration at 2 h ([8]; NMRI, liver, Male mice, 15 mg/kg p.o. 14 days, read-out: Liver concentration): 8220 ng/g
concentration at 2 h ([8]; NMRI, liver, Male mice, 30 mg/kg p.o. 14 days, read-out: Liver concentration): 12700 ng/g
concentration at 2 h ([8]; NMRI, liver, Male mice, 60 mg/kg p.o. 14 days, read-out: Liver concentration): 17700 ng/g
concentration at 2 h ([8]; NMRI, plasma, Female mice, 15 mg/kg p.o. 14 days, read-out: Plasma concentration): 390 ng/mL
concentration at 2 h ([8]; NMRI, plasma, Female mice, 30 mg/kg p.o. 14 days, read-out: Plasma concentration): 1280 ng/mL
concentration at 2 h ([8]; NMRI, plasma, Female mice, 60 mg/kg p.o. 14 days, read-out: Plasma concentration): 2000 ng/mL
concentration at 2 h ([8]; NMRI, plasma, Male mice, 15 mg/kg p.o. 14 days, read-out: Plasma concentration): 289 ng/mL
concentration at 2 h ([8]; NMRI, plasma, Male mice, 30 mg/kg p.o. 14 days, read-out: Plasma concentration): 762 ng/mL
concentration at 2 h ([8]; NMRI, plasma, Male mice, 60 mg/kg p.o. 14 days, read-out: Plasma concentration): 1420 ng/mL
Linearity of kinetics after repeat dosing ([8]; mice, 15-90 mg/kg p.o. 14 days, 5% glucose): tendency to sub-linear kinetics
Kp at 2 h ([8]; brain, Female mice, 90 mg/kg p.o. 14 days, read-out: Brain/plasma ratio): 4
Kp at 2 h ([8]; brain, Male mice, 90 mg/kg p.o. 14 days, read-out: Brain/plasma ratio): 4
Kp at 2 h ([8]; in vivo, Female mice, 90 mg/kg p.o. 14 days, read-out: Liver/plasma ratio): 16
Kp at 2 h ([8]; in vivo, Male mice, 90 mg/kg p.o. 14 days, read-out: Liver/plasma ratio): 16
concentration at 2 h ([8]; liver, Female mice, 90 mg/kg p.o. 14 days, read-out: Liver concentration): 63300 ng/g
concentration at 2 h ([8]; liver, Male mice, 90 mg/kg p.o. 14 days, read-out: Liver concentration): 75000 ng/g
concentration at 2 h ([8]; plasma, Female mice, 90 mg/kg p.o. 14 days, read-out: Plasma concentration): 3980 ng/mL
concentration at 2 h ([8]; plasma, Male mice, 90 mg/kg p.o. 14 days, read-out: Plasma concentration): 4730 ng/mL

From patent publication US20220288052A1, “COMPOUND FOR COMBINATION TREATMENT” (priority 2019, published 2022)
